IC50 data for 14 molecules are collected here from US20160052926A1, “NOVEL PYRIMIDINE AND PYRIDINE COMPOUNDS AND USAGE THEREOF” (HUTCHISON MEDIPHARMA LIMITED, priority 2013, published 2016).

One experiment concerns KG-1. As to the kind of experiment: Cellular Proliferation Assay (Cell Counting Kit-8), KG-1. The format is cell-based. Particulars: Homo sapiens, KG1 cells, 72 hours. Here is the method: (§1) Cellular Proliferation Assay
(§2) • KG-1 (ATCC Accession No. CCL-246), • SNU-16 (ATCC Accession No. CRL-5974), • RT-112 (ECACC Accession No. 85061106)
(§3) • FGFR related cancer cell proliferation is measured in 96-well plates using Cell Counting Kit-8 (Dojindo CK04-13). • Seed 30000 cells/well of KG1, 5000 cells/well of SNU16, and 1000 cells/well of RT112 in a volume of 100 μL/well in growth media. • After 24 hours, dilute the compound to 10, 3.3, 1.1, 0.37, 0.12, 0.04, 0.013, 0.004 μM, keeping the DMSO concentration at 5%. • Add 10 μL of 8-point compound series to the wells of culturing cells. • Incubate at 37° C. and 5% CO2 for 72 hours • Add 10 μL/well of CCkit8 and incubate at 37° C. and 5% CO2 for an hour • Detect the optical density of each well at 450 nm on Labsystems Multiskan K3.
(§4) • ODcompound well represents the optical density of cells treated with compound. • ODcell well represents the optical density of cells without compounds treatment. (only 0.5% DMSO) • ODcontrol well represents the optical density of culture media background
(§5) The concentration of compound providing 50% of proliferation inhibition was calculated using Excel Fit.

The target of another experiment is FGFR3 kinase (Homo sapiens, UniProt P22607). Kind of experiment: Z-Lyte Kinase Assay of FGFR3. The format is biochemical. Here is the method:
Z-Lyte Kinase Assay of FGFR3
The final concentrations are 1, 0.33, 0.11, 0.037, 0.012, 0.004, 0.0014, 0.00046 μM, and the final concentration of DMSO is 2%. • 3) Kinase/Peptide Mixture (P/K solution): Prepare Kinase/Peptide Mixture by diluting the kinase to 0.7 μg/ml and the Z-LYTE™ Tyr 4 peptide to 4 μM in 1.33× Kinase Buffer. Mix gently by pipetting. • 4) Phospho-peptide Solution (PP solution): Add 0.4 μl of Z-LYTE™ Tyr 4 Phospho-peptide to 99.6 μl of 1.33× Kinase Buffer. • 5) ATP Solution: Prepare ATP Solution by diluting the 10 mM of ATP in 1.33× Kinase Buffer to 300 uM. • 6) Development Solution: Dilute Development Reagent B with Development Buffer as 1:128.
Shake the plate for 30 Sec and centrifuge (1500 rpm, 1 min) • Seal the plate to protect from the light and incubate the plate for 1 hour at RT (25-30[…]) • 2) Development reaction • Add 5 μl of the Development solution to all wells • Shake the plate for 30 Sec and centrifuge (1500 rpm, 1 min) • Seal the plate to protect from the light and incubate the plate for 1 hour at RT (25-30[…]) • 3) Stop and read • Add 5 μl of the Stop reagent to all wells • Shake the plate for 30 Sec and centrifuge (1500 rpm, 1 min) • Measure the value of Coumarin (Ex400 nm, Em445 nm) and fluorescein (Ex400 nm, Em520 nm), respectively.
Inhibition rate(IR)=1−%Photest Cpd/%PhoC2
• determined with add-in software for Microsoft Excel, XLfit™ (version 2.0) from ID Business Solutions (Guildford, UK)

The target of another experiment is Recombinant human FGFR2 (Homo sapiens, UniProt P21802). As to the kind of experiment: Transcreener Kinase Assay of FGFR2. The format is biochemical. Particulars: read-out: FGFR2 (FP) IC50. Here is the method: Transcreener Kinase Assay of FGFR2
• Compounds were solved in DMSO and were diluted with assay buffer to 5 folds of final concentration keeping the DMSO concentration at 5%. Further dilution are needed to make final concentrations are at 1, 0.33, 0.11, 0.037, 0.012, 0.004, 0.0014, 0.0005 μM; (the final concentration of DMSO is 1%). • Enzyme/Substrate stock Preparation: Recombinant human FGFR2 and Poly E4Y are both diluted in assay buffer. The final concentration is 0.3 ng/μL for FGFR2 and 62.5 ng/μL for Poly E4Y. The mixture is being kept in ice before use; • Prepare ATP Diluents, 10 mM ATP is diluted in assay buffer, the final concentration is 25 μM; • Prepare ADP Diluents: diluted ADP (500 μM) in assay buffer, the final concentration is 25 μM; • Prepare ATP standard curve stock as following:
• In a 96-well plate, Add 5 μL of compound or control. (positive control: 5 μL of 5% DMSO; negative control: 5 μL of 500 mM EDTA) into desired wells; • Add 10 μL of Enzyme/Substrate stock into each well; • Add 10 μL of ATP Diluents to initiate the enzyme reaction and votex the plate immediately on a plate shaker; • For the wells to make standard curve, add 5 μL of 5% DMSO, 10 μL of assay buffer and 10 μL of ATP standard curve stock. • Incubate the plate for 45 min at 28[…] on a plate shaker in a low speed.
• Detection Mix Preparation: The mixture is made by dilution with MilliQ water; as following: ADP Alexa633 tracer (1:100), ADP antibody (1:158), and stop & detect buffer (1:10); • Tracer Only control Preparation: The mixture is made by dilution with MilliQ water; as following: ADP Alexa633 tracer (1:100), and stop & detect buffer (1:10) • No Tracer control Preparation: stop & detect buffer is diluted with MilliQ water; by 10 fold. • Add 25 μL of detection mix, Tracer Only control and No Tracer control into corresponding wells, respectively; • Incubate at 28 °C for 1 h, on a plate shaker in a low speed; • Measure florescence polarization (FP) on TECAN F500. Excitation wavelength: 610 nm, Emission wavelength: 670 nm.
(§6) • [ADP] in Compound well represents the ADP concentration in compound well. • [ADP] in Positive control well represents the ADP concentration in 5% DMSO well • Conversion of mP value to ADP concentration is calculated based on the formula which determined by standard curve. And mP value is measured by following the instruction provided by BellBrook Labs. (www.bellbrooklabs.com). 6. IC50: calculated using XL-Fit 2.0 software.

The next experiment relates to SNU-16. As to the kind of experiment: Cellular Proliferation Assay (Cell Counting Kit-8), SNU-16. The format is cell-based. Particulars: Homo sapiens, SNU-16 cells, 72 hours. How it is done: as §1, §2, §3, §4, §5
For orientation: Tetrazolium assays rely on reduction of a dye to a coloured formazan, in cell work by metabolically active cells.

The target of another experiment is Recombinant human FGFR1 (Homo sapiens, UniProt P11362). As to the kind of experiment: Transcreener Kinase Assay of FGFR1. In kind it is biochemical. Particulars: read-out: FGFR1 (FP) IC50. How it is done:
Transcreener Kinase Assay of FGFR1
Prepare Solution • Compounds were solved in DMSO and were diluted with assay buffer to 5 folds of final concentration keeping the DMSO concentration at 5%. Further dilution are needed to make final concentrations are at 1, 0.33, 0.11, 0.037, 0.012, 0.004, 0.0014, 0.0005 μM; (the final concentration of DMSO is 1%). • Enzyme/Substrate stock Preparation: Recombinant human FGFR1 and Poly E4Y are both diluted in assay buffer.
Enzymatic Reaction • In a 96-well plate, Add 5 μL of compound or control. (positive control: 5 μL of 5% DMSO; negative control: 5 μL of 500 mM EDTA) into desired wells; • Add 10 μL of Enzyme/Substrate stock into each well; • Add 10 μL of ATP Diluents to initiate the enzyme reaction and votex the plate immediately on a plate shaker; • For the wells to make standard curve, add 5 μL of 5% DMSO, 10 μL of assay buffer and 10 μL of ATP standard curve stock. • Incubate the plate for 45 min at 28[…] on a plate shaker in a low speed.
Excitation wavelength: 610 nm, Emission wavelength: 670 nm.
as §6

Chain of FGFR3 kinase (P22607 23-806): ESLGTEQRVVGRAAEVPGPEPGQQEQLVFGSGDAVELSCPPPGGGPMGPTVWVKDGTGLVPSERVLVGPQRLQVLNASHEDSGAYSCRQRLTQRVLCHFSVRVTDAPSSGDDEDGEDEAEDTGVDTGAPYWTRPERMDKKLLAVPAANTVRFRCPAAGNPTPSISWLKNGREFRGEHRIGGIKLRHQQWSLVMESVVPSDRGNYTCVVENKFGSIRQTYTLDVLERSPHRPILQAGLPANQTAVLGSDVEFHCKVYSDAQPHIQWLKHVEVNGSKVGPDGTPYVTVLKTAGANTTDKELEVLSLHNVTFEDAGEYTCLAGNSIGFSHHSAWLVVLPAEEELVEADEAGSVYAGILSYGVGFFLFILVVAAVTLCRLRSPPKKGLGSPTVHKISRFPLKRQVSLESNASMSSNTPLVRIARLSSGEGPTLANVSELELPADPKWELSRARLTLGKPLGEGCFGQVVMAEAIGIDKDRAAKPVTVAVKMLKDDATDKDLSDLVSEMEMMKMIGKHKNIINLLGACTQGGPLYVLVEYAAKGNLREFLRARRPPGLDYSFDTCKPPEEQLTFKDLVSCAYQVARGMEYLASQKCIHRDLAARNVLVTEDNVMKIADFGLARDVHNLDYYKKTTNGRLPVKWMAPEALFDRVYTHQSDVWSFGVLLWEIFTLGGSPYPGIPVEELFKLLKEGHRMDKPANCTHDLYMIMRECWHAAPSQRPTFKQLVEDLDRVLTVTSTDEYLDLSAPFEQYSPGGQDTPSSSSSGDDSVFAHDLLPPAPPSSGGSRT
Chain of Recombinant human FGFR1 (P11362 22-822): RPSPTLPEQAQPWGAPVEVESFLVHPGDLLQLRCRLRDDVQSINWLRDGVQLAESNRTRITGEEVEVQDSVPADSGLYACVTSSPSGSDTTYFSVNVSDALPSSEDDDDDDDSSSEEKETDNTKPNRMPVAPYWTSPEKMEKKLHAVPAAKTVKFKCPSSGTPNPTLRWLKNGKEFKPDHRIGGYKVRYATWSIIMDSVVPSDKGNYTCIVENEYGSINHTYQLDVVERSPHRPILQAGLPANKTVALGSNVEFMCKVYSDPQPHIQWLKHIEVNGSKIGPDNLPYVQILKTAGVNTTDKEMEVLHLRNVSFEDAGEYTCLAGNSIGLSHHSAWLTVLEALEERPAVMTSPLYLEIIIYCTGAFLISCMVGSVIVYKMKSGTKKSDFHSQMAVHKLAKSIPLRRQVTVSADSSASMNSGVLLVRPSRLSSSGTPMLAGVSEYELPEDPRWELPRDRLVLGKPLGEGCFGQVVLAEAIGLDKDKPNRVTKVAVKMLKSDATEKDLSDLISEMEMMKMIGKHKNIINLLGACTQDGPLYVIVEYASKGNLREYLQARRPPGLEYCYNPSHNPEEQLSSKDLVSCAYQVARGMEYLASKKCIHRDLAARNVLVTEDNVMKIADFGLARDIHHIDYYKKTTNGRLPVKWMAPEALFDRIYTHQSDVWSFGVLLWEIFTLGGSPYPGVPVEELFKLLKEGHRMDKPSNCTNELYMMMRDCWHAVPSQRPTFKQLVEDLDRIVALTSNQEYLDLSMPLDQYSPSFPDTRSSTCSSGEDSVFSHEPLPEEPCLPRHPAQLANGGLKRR
Chain of Recombinant human FGFR2 (P21802 22-821): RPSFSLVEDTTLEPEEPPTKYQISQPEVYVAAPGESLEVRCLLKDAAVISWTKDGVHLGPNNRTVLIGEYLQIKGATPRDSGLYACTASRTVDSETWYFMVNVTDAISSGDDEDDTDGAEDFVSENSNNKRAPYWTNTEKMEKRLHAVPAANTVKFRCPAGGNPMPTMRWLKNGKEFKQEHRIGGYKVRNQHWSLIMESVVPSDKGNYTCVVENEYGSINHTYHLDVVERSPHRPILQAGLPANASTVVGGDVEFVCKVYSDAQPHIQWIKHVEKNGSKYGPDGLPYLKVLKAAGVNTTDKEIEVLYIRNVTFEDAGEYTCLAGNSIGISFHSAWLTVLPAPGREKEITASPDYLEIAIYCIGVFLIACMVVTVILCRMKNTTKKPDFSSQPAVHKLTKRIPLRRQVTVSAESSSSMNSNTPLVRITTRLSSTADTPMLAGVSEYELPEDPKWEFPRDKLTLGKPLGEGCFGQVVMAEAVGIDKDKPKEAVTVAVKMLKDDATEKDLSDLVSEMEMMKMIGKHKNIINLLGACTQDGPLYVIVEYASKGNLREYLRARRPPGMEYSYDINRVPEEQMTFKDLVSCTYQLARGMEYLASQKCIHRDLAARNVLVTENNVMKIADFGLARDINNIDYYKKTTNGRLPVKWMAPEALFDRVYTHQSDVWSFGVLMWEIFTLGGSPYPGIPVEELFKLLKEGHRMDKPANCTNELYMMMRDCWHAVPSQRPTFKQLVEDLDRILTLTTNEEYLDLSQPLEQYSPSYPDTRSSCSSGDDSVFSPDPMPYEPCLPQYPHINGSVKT

For the molecule `CCN1CCN(c2ccc(Nc3ncc(CCc4cc(C(=O)NOC)cc5occc45)cn3)cc2)CC1` [Compound 5], the IC50 – broadly, the concentration that gives 50% inhibition – amounted to 24 nM in the experiment on KG-1; 47 nM against FGFR3 kinase; 12 nM on Recombinant human FGFR2; 56 nM in the experiment with SNU-16; 13 nM on Recombinant human FGFR1.
For `CCN1CCN(c2cccc(Nc3ncc(CCc4cc(OC)cc(C(=O)NC)c4)cn3)c2)CC1` [Compound 9, 3-(2-(2-((3-(4-ethylpiperazin-1-yl)phenyl)amino)pyrimidin-5-yl)ethyl)-5-methoxy-N-methylbenzamide], in that order: 98 nM, 64 nM, 28 nM, 44 nM and 38 nM.
For `CCN1CCN(c2cccc(Nc3ncc(CCc4cc(OC)cc(C(=O)NOC)c4)cn3)c2)CC1` [Compound 14, 3-(2-(2-((3-(4-ethylpiperazin-1-yl)phenyl)amino)pyrimidin-5-yl)ethyl)-N,5-dimethoxybenzamide], in that order: 9 nM, 4 nM, 4 nM, 7 nM and 3 nM.
For `CCN1CCN(c2ccc(Nc3ncc(/C=C/c4cc(OC)cc(C(=O)NOC)c4)cn3)cc2)CC1` [Compound 16], in that order: 13 nM, 16 nM, 8 nM, 17 nM and 12 nM.
`CCN1CCN(c2ccc(Nc3ncc(CCc4cc(OC)cc(C(=O)NOC)c4)cn3)cc2)CC1` [Compound 17]: the IC50 in the experiment with KG-1 was 9 nM; at FGFR3 kinase it was 9 nM; at Recombinant human FGFR2 it was 6 nM; in the experiment on SNU-16 it was 12 nM; on Recombinant human FGFR1, 4 nM.
As for `CONC(=O)c1cc(CCc2cnc(Nc3cccc(N4C[C@@H](C)N[C@@H](C)C4)c3)nc2)cc(OC)c1` [Compound 18], the IC50 came to 77 nM with KG-1; 8 nM on FGFR3 kinase; 6 nM on Recombinant human FGFR2; 3 nM with SNU-16; 12 nM on Recombinant human FGFR1.
For `CONC(=O)c1cc(CCc2cnc(Nc3ccc(N4CCN(CCO)CC4)cc3)nc2)cc(OC)c1` [Compound 19, 3-(2-(2-((4-(4-(2-hydroxyethyl)piperazin-1-yl)phenyl)amino)pyrimidin-5-yl)ethyl)-N,5-dimethoxybenzamide] the same measures were 19 nM, 11 nM, 5 nM, 22 nM and 5 nM.
Consider `CCN1CCN(c2ccc(Nc3ncc(CCc4cc(OC)cc(C(=O)NOCCO)c4)cn3)cc2)CC1` [Compound 20, 3-(2-(2-((4-(4-ethylpiperazin-1-yl)phenyl)amino)pyrimidin-5-yl)ethyl)-N-(2-hydroxyethoxy)-5-methoxybenzamide], for which the IC50 amounted to 589 nM with KG-1; 128 nM against FGFR3 kinase; 34 nM on Recombinant human FGFR2; 340 nM in the experiment with SNU-16; 43 nM at Recombinant human FGFR1.
As for `CONC(=O)c1cc(CCc2cnc(Nc3cnn(C)c3)nc2)cc(OC)c1` [Compound 23], the IC50 in the experiment on KG-1 is 29 nM; against FGFR3 kinase, 13 nM; on Recombinant human FGFR2, 6 nM; in the experiment on SNU-16, 18 nM; on Recombinant human FGFR1, 9 nM.
For `CONC(=O)c1cc(CCc2cnc(Nc3ccn(C)n3)nc2)cc(OC)c1` [Compound 24] the same measures were 122 nM, 94 nM, 27 nM, 151 nM and 47 nM.
For `CONC(=O)c1cc(CCc2cnc(Nc3cnn(C)c3)nc2)c(F)c(OC)c1` [Compound 29], in that order: 5 nM, 7 nM, 2 nM, 5 nM and 3 nM.
`CONC(=O)c1cc(CCc2cnc(Nc3ccc(N4CCOCC4)cc3)nc2)cc(OC)c1` [Compound 37]: the 50% inhibitory concentration (IC50) turned out to be 46 nM with KG-1; 16 nM against FGFR3 kinase; 7 nM at Recombinant human FGFR2; 44 nM in the experiment on SNU-16; 10 nM at Recombinant human FGFR1.
For `CONC(=O)c1cc(CCc2cnc(Nc3ccc(N4CCN(C)[C@H](C)C4)cc3)nc2)cc(OC)c1` [Compound 40], in that order: 31 nM, 39 nM, 10 nM, 48 nM and 12 nM.
With `CNC(=O)c1cc(C#Cc2cnc(Nc3ccc(N4C[C@@H](C)N[C@@H](C)C4)cc3)nc2)c(Cl)c(OC)c1` [Compound 222, 4-chloro-3-((2-((4-((3S,5R)-3,5-dimethylpiperazin-1-yl)phenyl)amino)pyrimidin-5-yl)ethynyl)-5-methoxy-N-methylbenzamide], the IC50 against FGFR3 kinase amounted to 27 nM; at Recombinant human FGFR2, 8 nM; at Recombinant human FGFR1, 22 nM.
